Assay results reported in patent US20050187389A1, “Pyrrolopyrimidine derivatives and analogs and their use in the treatment and prevention of diseases” (Ambit Biosciences Corporation, priority 2004, published 2005).

Tests used:
[1] = biological target: T1, ABL1 (Homo sapiens, UniProt P00519); assay: ABL1 (DKIN) phage-display competitive binding assay
T1 construct: made in house
T1 sequence (P00519 242-493 limits assumed): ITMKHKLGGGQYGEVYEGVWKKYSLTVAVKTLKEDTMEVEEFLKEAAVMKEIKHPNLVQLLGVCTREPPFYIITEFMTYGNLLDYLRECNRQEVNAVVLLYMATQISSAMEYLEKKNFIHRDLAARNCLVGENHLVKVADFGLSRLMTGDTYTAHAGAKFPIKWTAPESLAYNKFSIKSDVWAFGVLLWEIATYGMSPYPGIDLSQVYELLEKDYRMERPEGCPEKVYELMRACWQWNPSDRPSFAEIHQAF
Text: (§1) Methods for measuring binding affinities for interactions between small molecules and kinases including FLT3, c-KIT, ABL(T334I) [a.k.a. ABL(T315I)], VEGFR-2 (a.k.a. KDR), and EGFR are described in detail in U.S. application Ser. No. 10/873,835, which is incorporated by reference herein in its entirety. The components of the assays include human kinases expressed as fusions to T7 bacteriophage particles and immobilized ligands that bind to the ATP site of the kinases. […] If the test compound binds the kinase it competes with the immobilized ligand and prevents binding to the solid support. […] The results are read out by quantitating the amount of fusion protein bound to the solid support, which is accomplished by either traditional phage plaque assays or by quantitative PCR (qPCR) using the phage genome as a template. […] The concentration of test molecule that reduces the number of phage bound to the solid support by 50% is equal to the Kd for the interaction between the kinase and the test molecule. Typically, data are collected for twelve concentrations of test compound and, the resultant binding curve is fit to a non-cooperative binding isotherm to calculate Kd.
(§2) Described in the exemplary assays below is data from binding with varying kinases. […] The term “ND” represents non-determined values.

[2] = biological target: T2, VEGFR-2 (Homo sapiens, UniProt P35968); assay: VEGFR-2 phage-display competitive binding assay
T2 construct: made in house
T2 sequence (P35968 20-1356): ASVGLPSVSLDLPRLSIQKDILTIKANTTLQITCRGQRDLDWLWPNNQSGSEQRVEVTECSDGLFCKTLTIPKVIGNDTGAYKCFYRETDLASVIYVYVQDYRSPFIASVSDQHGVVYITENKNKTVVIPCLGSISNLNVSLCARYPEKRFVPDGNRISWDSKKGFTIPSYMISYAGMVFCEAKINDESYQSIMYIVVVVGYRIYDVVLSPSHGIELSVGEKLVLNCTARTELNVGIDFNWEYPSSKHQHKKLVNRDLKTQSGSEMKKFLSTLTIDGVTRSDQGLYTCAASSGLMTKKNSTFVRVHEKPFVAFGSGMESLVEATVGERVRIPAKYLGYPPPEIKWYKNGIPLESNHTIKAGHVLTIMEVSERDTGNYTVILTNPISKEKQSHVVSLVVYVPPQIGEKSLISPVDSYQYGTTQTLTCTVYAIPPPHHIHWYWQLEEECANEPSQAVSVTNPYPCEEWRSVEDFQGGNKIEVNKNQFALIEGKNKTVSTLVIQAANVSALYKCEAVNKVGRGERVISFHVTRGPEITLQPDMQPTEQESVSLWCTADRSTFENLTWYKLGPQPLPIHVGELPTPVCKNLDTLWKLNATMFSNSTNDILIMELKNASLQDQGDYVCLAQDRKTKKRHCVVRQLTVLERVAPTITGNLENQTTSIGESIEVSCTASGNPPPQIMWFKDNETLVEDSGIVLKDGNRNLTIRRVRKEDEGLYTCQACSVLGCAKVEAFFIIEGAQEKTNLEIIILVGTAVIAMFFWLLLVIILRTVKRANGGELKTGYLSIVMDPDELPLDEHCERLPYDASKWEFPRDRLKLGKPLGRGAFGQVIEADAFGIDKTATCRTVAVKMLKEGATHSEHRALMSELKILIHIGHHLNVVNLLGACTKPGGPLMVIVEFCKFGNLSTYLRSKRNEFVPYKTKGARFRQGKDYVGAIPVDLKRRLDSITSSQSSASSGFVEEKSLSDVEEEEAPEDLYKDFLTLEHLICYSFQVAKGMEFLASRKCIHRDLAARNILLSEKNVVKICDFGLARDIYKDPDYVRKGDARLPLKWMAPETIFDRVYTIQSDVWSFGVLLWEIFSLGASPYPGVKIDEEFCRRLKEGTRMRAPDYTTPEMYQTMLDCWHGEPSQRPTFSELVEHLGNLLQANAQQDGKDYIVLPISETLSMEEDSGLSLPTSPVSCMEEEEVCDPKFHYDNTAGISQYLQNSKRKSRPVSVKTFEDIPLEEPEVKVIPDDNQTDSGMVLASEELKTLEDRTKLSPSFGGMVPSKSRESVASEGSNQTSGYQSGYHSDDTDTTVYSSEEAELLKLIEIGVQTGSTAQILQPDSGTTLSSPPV
Text: as §1, §2

[3] = biological target: T3, PDGFR-β (Homo sapiens, UniProt P09619); assay: PDGFR-β (DKIN) phage-display competitive binding assay
T3 construct: Kd for PDGFR-β (DKIN); made in house
T3 sequence (P09619 600-962 limits assumed): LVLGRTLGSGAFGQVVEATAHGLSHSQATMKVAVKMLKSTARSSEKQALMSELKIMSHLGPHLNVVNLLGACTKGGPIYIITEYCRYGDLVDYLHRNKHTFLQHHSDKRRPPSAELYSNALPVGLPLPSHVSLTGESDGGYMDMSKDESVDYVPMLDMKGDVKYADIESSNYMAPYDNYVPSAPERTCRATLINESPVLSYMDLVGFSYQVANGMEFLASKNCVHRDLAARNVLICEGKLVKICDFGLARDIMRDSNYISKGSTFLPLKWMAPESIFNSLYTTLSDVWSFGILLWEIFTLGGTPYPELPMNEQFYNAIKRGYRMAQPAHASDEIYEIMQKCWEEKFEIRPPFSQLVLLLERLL
Text: as §1, §2
Kd values for the interactions between PDGFR-β and candidate small molecule ligands were measured by a phage-display-based competitive binding assay that is described in detail in U.S. Ser. No. 10/406,797 filed 2 Apr. 2003 and incorporated herein by reference. Briefly, T7 phage displaying human PDGFR-β were incubated with an affinity matrix coated with known PDGFR-β inhibitor in the presence of various concentrations of the soluble competitor molecules. […] The Kd for the interaction between the soluble competitor molecule and PDGFR-β is equal to the concentration of soluble competitor molecule that causes a 50% reduction in the number of phage recovered in the eluate compared to a control sample lacking soluble competitor. Since this assay is generic, and any molecule can be used as a soluble competitor, we have determined Kd values for the interaction between PDGFR-β and several small molecules, including those shown below.

[4] = biological target: T4, FLT3 (Homo sapiens, UniProt P36888); assay: FLT3 (DKIN) phage-display competitive binding assay
T4 construct: made in house
T4 sequence (P36888 610-943 limits assumed): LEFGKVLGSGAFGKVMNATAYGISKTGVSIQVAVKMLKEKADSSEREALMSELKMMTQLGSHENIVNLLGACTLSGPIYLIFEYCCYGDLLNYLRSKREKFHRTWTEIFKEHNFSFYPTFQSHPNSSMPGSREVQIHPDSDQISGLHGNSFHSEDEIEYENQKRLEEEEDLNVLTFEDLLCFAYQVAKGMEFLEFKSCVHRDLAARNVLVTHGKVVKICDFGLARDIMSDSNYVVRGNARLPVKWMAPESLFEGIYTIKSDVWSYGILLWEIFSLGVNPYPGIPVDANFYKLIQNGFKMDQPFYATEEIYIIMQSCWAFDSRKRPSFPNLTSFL
Text: as §1, §2

[5] = system: MV4,11 cells; assay: FLT-3 cell assay, (MV 4,11) cell proliferation assay with 10% serum "CS0005"; format: cell-based, human
Method: (§3) The ability of FLT3 kinase inhibitors to inhibit cellular proliferation was also examined. MV4:11 was a cell line derived from a patient with acute myelogenous leukemia. It expressed a mutant FLT3 protein that was constitutively active. […] Inhibition of FLT3 kinase activity prevented proliferation of these cells, and thus the MV4:11 cell line can be used a model for cellular activity of small molecule inhibitors of FLT3.
(§4) FLT3 Assay using MV4,11 Cells
(§5) MV4,11 cells were grown in an incubator @ 37° C. in 5% CO2 in Medium 2 (RPMI, 10% FBS, 4 mM glutamine, Penn/Strep). The cells were counted daily and the cell density was kept between 1e5 and 8e5 cells/ml.
(§6) Day One: Enough cells were harvested for experiments to be conducted in 50 ml conical tubes. The harvested cells were spun at 500 g for 5 min at 4° C., the supernatant was then aspirated and the cells were resuspended in the starting volume of 1× PBS. The cells were again spun at 500 g for 5 min at 4° C. and the supernatant again aspirated. The cells were then resuspended in medium 3 (DMEM w/glut, 10% FBS, Penn/Strep) to a density of 4e^5 cells/ml and incubated @ 37° C. in 5% CO2 O/N.
(§7) Day Two: The cells were counted and enough medium 3 was added to decrease density to 2e5 cells/ml. 50 ul (10,000 cells) was aliquoted into each well of a 96 well optical plate using multichannel pipetman. […]

[6] = system: MV4,11 cells; assay: (MV 4,11) Cell Proliferation Assay with 0.5% Serum "CS0001"; format: cell-based; conditions: Homo sapiens
Method: as §3, §4, §5
as §6, with “The cells were then resuspended in medium 3 (DMEM w/glut, 10% FBS, Penn/Strep) to a density of 4e^5 cells/ml and incubated @ 37° C. in 5% CO2 O/N.” left out
as §7

SMILES	Kd [3]	also measured
COc1ccc(-c2cc3c(N[C@@H](C)c4ccccc4)ncnc3n2C(C)C)cc1 [Compound D10]	–	Kd [1]: 1000 to 10000 nM
CC(Nc1ncnc2oc(-c3ccccc3)c(-c3ccccc3)c12)c1ccccc1 (stereo not shown) [Compound H3]	–	Kd [2]: > 10 µM
COc1ccc(-c2cc3c(NCc4cccc(C)c4)ncnc3[nH]2)cc1 [Compound I4]	100 to 1000 nM	–
COC(=O)C(Nc1ncnc2[nH]c(-c3ccc(OC)cc3)cc12)c1ccccc1 (stereo not shown) [Compound I7]	100 to 1000 nM	–
COc1ccc(-c2cc3c(NCCc4ccccc4)ncnc3[nH]2)cc1 [Compound I8]	1000 to 10000 nM	Kd [1]: 100 to 1000 nM
C[C@H](Nc1ncnc2[nH]c(-c3ccc(O)cc3)cc12)c1ccccc1 [Compound I9]	–	Kd [1]: 1000 to 10000 nM
COc1cccc(-c2cc3c(N[C@H](C)c4ccccc4)ncnc3[nH]2)c1 [Compound I10]	100 to 1000 nM	–
COc1cccc(-c2cc3c(NCc4cccc(C)c4)ncnc3[nH]2)c1 [Compound I12]	–	Kd [4]: > 10 µM
Cc1cc(C)cc(Nc2ncnc3[nH]c(-c4ccc(Br)cc4)cc23)c1 [Compound S39]	–	IC50 [6]: 100 to 1000 nM; Kd [4]: > 10 µM

More lines, main results first:

Kd [3]	SMILES	also measured
100 to 1000 nM	COc1ccc(-c2cc3c(N[C@H](C)c4ccccc4)nc(N[C@@H](C)c4ccccc4)nc3[nH]2)cc1 [Compound M22]	–
100 to 1000 nM	C[C@@H](Nc1ncnc2c1cc(-c1ccc(O)cc1)n2C)c1ccccc1 [Compound Q2]	–
100 to 1000 nM	Cn1c(-c2ccc(O)cc2)cc2c(Nc3ccccc3Cl)ncnc21 [Compound Q3]	–
100 to 1000 nM	CCc1ccccc1Nc1ncnc2c1cc(-c1ccc(O)cc1)n2C [Compound Q4]	–
> 10000 nM	COc1ccc(-c2cc3c(Nc4cccc(O)c4)ncnc3[nH]2)cc1 [Compound S6]	–
> 10000 nM	COc1ccc(-c2cc3c(Nc4ccc(F)c(Cl)c4)ncnc3[nH]2)cc1 [Compound S7]	–
100 to 1000 nM	COc1ccc(-c2cc3c(Nc4ccc(F)cc4)ncnc3[nH]2)cc1 [Compound S9]	–
100 to 1000 nM	COc1ccc(-c2cc3c(Nc4cccc(C)c4)ncnc3[nH]2)cc1 [Compound S10]	activity in the FLT-3 cell assay, (MV 4,11) cell proliferation assay with 10% serum, "CS0005" [5]: ++ (a Kd of 1,000 nM to 10,000 nM); IC50 [6]: < 100 nM
1000 to 10000 nM	COC(=O)c1cccc(Nc2ncnc3[nH]c(-c4cccc(OC)c4)cc23)c1 [Compound S15]	–
1000 to 10000 nM	COc1cccc(-c2cc3c(Nc4cccc(O)c4)ncnc3[nH]2)c1 [Compound S16]	Kd [1]: 100 to 1000 nM; Kd [4]: 0.1 to 1 µM
